From patent US8501940B2, “Tetrahydrocinnoline derivatives” (Hoffmann-La Roche Inc., priority 2008, dated 2013) come the findings set out here.

In the experiment the target is T1, human 11beta-HSD1 (Homo sapiens, UniProt P28845).
T1 construct: made in house; host or cells: HEK293 cells (ATCC CRL-1573), transient transfection with a pcDNA3 construct; microsomal fraction used
Briefly: Microsome assay (cortisone to cortisol conversion, ELISA detection). In kind it is biochemical. The conditions noted are these: microsomes from HEK293 cells transiently expressing human 11beta-HSD1; Cortisone 50-200 nM, NADPH 1 mM; 60 min at 37° C.; cortisol by ELISA; read-out: h 11-beta-HSD 1 IC50. The method, then: The cDNA encoding the human 11beta-HSD1 protein was cloned into the expression vector pcDNA3 (Stratagene). This construct (for details see Alex Odermatt et al.; J Biol Chem., 1999, Vol. 274, Issue 40, 28762-28770) was used to transiently express the protein in HEK293 cells (ATCC number: CRL-1573, described in Graham, F. L., Smiley, J., Russell, W. C., Nairn, R.; (1977)) using lipofectamine. 48 h after transfection cells were washed twice with ice-cold PBS (Phosphate buffered Saline). To 1 volume of cell suspension in PBS 2 volumes of ice-cold lysis buffer (50 mM Tris; pH7.5; 1 mM EDTA; 100 mM NaCl) were added. The cells were lysed by Potter-homogenization (20 strokes). The resulting homogenate was sonicated with a tip sonicator (10% output; 2×30 sec.) and cleared by a low speed centrifugation (10 min×9000 g; 4° C.). The microsomal fraction was collected by a high speed centrifugation (60 min×110,000 g). The resulting pellet was resuspended in storage buffer (20 mM Tris pH 7.5; 1 mM EDTA; 10% Glycerol) and the centrifugation was repeated. The resulting pellet containing the microsomal fraction was again taken up into storage buffer and aliquots were kept frozen in liquid Nitrogen until use.
Microsomes isolated from HEK293 cells transiently expressing human 11beta-HSD1 (for details see above) were incubated in assay buffer (100 mM NaCl; 1 mM EDTA; 1 mM EGTA; 1 mM MgCl; 250 mM Sucrose; 20 mM Tris pH 7.4; Cortisone 50-200 nM and NADPH 1 mM) together with different concentrations of test substances. After 60 min. of incubation at 37° C. the assay was stopped by heating to 80° C. (5 min.) and by addition of the inhibitor Carbenoxolone (1 uM). The amount of Cortisol produced in this assay was determined using a commercially available, ELISA-based Cortisol-detection kit (Distributed by Assay Design, Inc.). Inhibitors were characterized by there IC50 values, e.g. the concentration at which the production of cortisol was 50% reduced.
For orientation: ELISA stands for enzyme-linked immunosorbent assay.

T1 sequence (P28845 whole entry): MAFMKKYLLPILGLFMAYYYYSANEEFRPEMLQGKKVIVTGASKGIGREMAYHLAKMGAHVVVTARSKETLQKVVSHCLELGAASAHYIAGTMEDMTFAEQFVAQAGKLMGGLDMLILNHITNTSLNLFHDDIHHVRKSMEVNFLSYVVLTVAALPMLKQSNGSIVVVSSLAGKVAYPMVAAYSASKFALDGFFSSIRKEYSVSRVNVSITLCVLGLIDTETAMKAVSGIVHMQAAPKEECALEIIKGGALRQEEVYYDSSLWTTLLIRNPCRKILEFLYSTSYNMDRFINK

For orientation: IC50 means the concentration that gives 50% inhibition. In the case of `CC1(Cc2cc3c(nn2)[C@H]2CC[C@@H]3C2(C)C)CC1` (racemic) [Example 16, (5RS,8SR)-9,9-dimethyl-3-[(1-methylcyclopropyl)methyl]-5,6,7,8-tetrahydro-5,8-methanocinnoline], the IC50 is 1 pM.
Regarding `CC1(Cc2cc3c(nn2)[C@H]2CC[C@@H]3C2)CC1` (racemic) [Example 18, (5RS,8SR)-3-[(1-methylcyclopropyl)methyl]-5,6,7,8-tetrahydro-5,8-methanocinnoline], the IC50 came to 37 pM.
Regarding `CC(C)(C)Cc1cc2c(nn1)C1CCC2C12CC2` (single isomer, unassigned) [Example 1b, (5′S,8′R)-3′-(2,2-dimethylpropyl)-5′,6′,7′,8′-tetrahydrospiro[cyclopropane-1,9′-[1′,2′]diaza[5′,8′]methanocinnoline]], the IC50 is 1 pM.
The same measure for `CC(C)(C)c1cc2c(nn1)C1CCC2C12CC2` (single isomer, unassigned) [Example 2a, (5′R,8′S)-3′-tert-butyl-5′,6′,7′,8′-tetrahydrospiro[cyclopropane-1,9′-[1′,2′]diaza[5′,8′]methanocinnoline]]: 11 pM.
Regarding `CC(C)(C)c1cc2c(nn1)C1CCC2C12CC2` (single isomer, unassigned) [Example 2b, (5′S,8′R)-3′-tert-butyl-5′,6′,7′,8′-tetrahydrospiro[cyclopropane-1,9′-[1′,2′]diaza[5′,8′]methanocinnoline]], the IC50 was determined as 13 pM.
Take `c1c(C2CC2)nnc2c1C1CCC2C12CC2` (single isomer, unassigned) [Example 5a, (5′R,8′S)-3′-cyclopropyl-5′,6′,7′,8′-tetrahydrospiro[cyclopropane-1,9′-[1′,2′]diaza[5′,8′]methanocinnoline]]: the IC50 worked out at 566 pM.
On to `CC(C)(C)Cc1cc2c(nn1)C1CCC2C12CC2` (stereo not drawn) [Example 1, (5′RS,8′SR)-3′-(2,2-dimethylpropyl)-5′,6′,7′,8′-tetrahydrospiro[cyclopropane-1,9′-[1′,2′]diaza[5′,8′]methanocinnoline]], for which the IC50 was found to be 3 pM.
Take `CC(C)(C)Cc1cc2c(nn1)[C@H]1CC[C@@H]2C12CC2` [Example 1a, (5′R,8′S)-3′-(2,2-dimethylpropyl)-5′,6′,7′,8′-tetrahydrospiro[cyclopropane-1,9′-[1′,2′]diaza[5′,8′]methanocinnoline]]: the IC50 came to 4 pM.
On to `CC(C)(C)c1cc2c(nn1)C1CCC2C12CC2` (stereo not drawn) [Example 2, (5′RS,8′SR)-3′-tert-butyl-5′,6′,7′,8′-tetrahydrospiro[cyclopropane-1,9′-[1′,2′]diaza[5′,8′]methanocinnoline]], for which the IC50 was found to be 20 pM.
Take `CC1(Cc2cc3c(nn2)C2CCC3C23CC3)CC1` (stereo not drawn) [Example 3, (5′RS,8′SR)-3′-[(1-methylcyclopropyl)methyl]-5′,6′,7′,8′-tetrahydrospiro[cyclopropane-1,9′-[1′,2′]diaza[5′,8′]methanocinnoline]]: the IC50 was 6 pM.
Take `CC1(c2cc3c(nn2)C2CCC3C23CC3)CC1` (stereo not drawn) [Example 4, (5′RS,8′SR)-3′-(1-methylcyclopropyl)-5′,6′,7′,8′-tetrahydrospiro[cyclopropane-1,9′-[1′,2′]diaza[5′,8′]methanocinnoline]]: the IC50 amounted to 58 pM.
For the compound `c1c(C2CC2)nnc2c1C1CCC2C12CC2` (stereo not drawn) [Example 5, (5′RS,8′SR)-3′-cyclopropyl-5′,6′,7′,8′-tetrahydrospiro[cyclopropane-1,9′-[1′,2′]diaza[5′,8′]methanocinnoline]], the concentration for half-maximal inhibition (IC50) amounted to 603 pM.
Take `c1c(C2CC2)nnc2c1[C@H]1CC[C@@H]2C12CC2` [Example 5b, (5′S,8′R)-3′-cyclopropyl-5′,6′,7′,8′-tetrahydrospiro[cyclopropane-1,9′-[1′,2′]diaza[5′,8′]methanocinnoline]]: the IC50 is 382 pM.
For the compound `Cc1c(C2CC2)nnc2c1C1CCC2C12CC2` (stereo not drawn) [Example 6, (5′RS,8′SR)-3′-cyclopropyl-4′-methyl-5′,6′,7′,8′-tetrahydrospiro[cyclopropane-1,9′-[1′,2′]diaza[5′,8′]methanocinnoline]], the IC50 was 35 pM.
For `c1c(C2CC2)nnc2c1C1CCC2CC1` [Example 7, 3-Cyclopropyl-5,6,7,8-tetrahydro-5,8-ethanocinnoline], the IC50 was found to be 47 pM.
On to `CC1(Cc2cc3c(nn2)C2CCC3CC2)CC1` [Example 8, 3-[(1-Methylcyclopropyl)methyl]-5,6,7,8-tetrahydro-5,8-ethanocinnoline], for which the IC50 is 6 pM.
In the case of `CC(C)(C)Cc1cc2c(nn1)C1CCC2CC1` [Example 9, 3-(2,2-Dimethylpropyl)-5,6,7,8-tetrahydro-5,8-ethanocinnoline], the IC50 was 1 pM.
Take `CC(C)(C)c1cc2c(nn1)C1CCC2CC1` [Example 10, 3-Tert-butyl-5,6,7,8-tetrahydro-5,8-ethanocinnoline]: the IC50 turned out to be 2 pM.
In the case of `CC1(c2cc3c(nn2)C2CCC3C23CCCC3)CC1` (stereo not drawn) [Example 11, (5′RS,8′SR)-3′-(1-methylcyclopropyl)-5′,6′,7′,8′-tetrahydrospiro[cyclopentane-1,9′-[1′,2′]diaza[5′,8′]methanocinnoline]], the IC50 came out at 2 pM.
`CC1(Cc2cc3c(nn2)C2CCC3C23CCCC3)CC1` (stereo not drawn) [Example 12, (5′RS,8′SR)-3′-[(1-methylcyclopropyl)methyl]-5′,6′,7′,8′-tetrahydrospiro[cyclopentane-1,9′-[1′,2′]diaza[5′,8′]methanocinnoline]]: the IC50 worked out at 1 pM.
Take `CC(C)(C)Cc1cc2c(nn1)C1CCC2C12CCCC2` (stereo not drawn) [Example 13, (5′RS,8′SR)-3′-(2,2-dimethylpropyl)-5′,6′,7′,8′-tetrahydrospiro[cyclopentane-1,9′-[1′,2′]diaza[5′,8′]methanocinnoline]]: the IC50 was determined as 1 pM.
Take `CC(C)(C)c1cc2c(nn1)C1CCC2C12CCCC2` (stereo not drawn) [Example 14, (5′RS,8′SR)-3′-tert-butyl-5′,6′,7′,8′-tetrahydrospiro[cyclopentane-1,9′-[1′,2′]diaza[5′,8′]methanocinnoline]]: the IC50 worked out at 2 pM.
The same measure for `c1c(C2CC2)nnc2c1C1CCC2C12CCCC2` (stereo not drawn) [Example 15, (5′RS,8′SR)-3′-cyclopropyl-5′,6′,7′,8′-tetrahydrospiro[cyclopentane-1,9′-[1′,2′]diaza[5′,8′]methanocinnoline]]: 13 pM; for `CC1(Cc2cc3c(nn2)[C@@]2(C)CC[C@@H]3C2(C)C)CC1` [Example 17, (5R,8S)-8,9,9-trimethyl-3-[(1-methylcyclopropyl)methyl]-5,6,7,8-tetrahydro-5,8-methanocinnoline]: 1 pM; for `Fc1ccc(-c2cc3c(nn2)C2CCC3C23CC3)c(C(F)(F)F)c1` (stereo not drawn) [Example 19, (5′RS,8′SR)-3′-[4-fluoro-2-(trifluoromethyl)phenyl]-5′,6′,7′,8′-tetrahydrospiro[cyclopropane-1,9′-[1′,2′]diaza[5′,8′]methanocinnoline]]: 2 pM.
On to `Cc1c(-c2cc3c(nn2)C2CCC3C23CC3)cnn1-c1ccccc1` (stereo not drawn) [Example 20, (5′RS,8′SR)-3′-(5-methyl-1-phenyl-1H-pyrazol-4-yl)-5′,6′,7′,8′-tetrahydrospiro[cyclopropane-1,9′-[1′,2′]diaza[5′,8′]methanocinnoline]], for which the IC50 was 89 pM.
The same measure for `Fc1ccc(-c2cc3c(nn2)C2CCC3C23CC3)c(Cl)c1` (stereo not drawn) [Example 21, (5′RS,8′SR)-3′-(2-chloro-4-fluorophenyl)-5′,6′,7′,8′-tetrahydrospiro[cyclopropane-1,9′-[1′,2′]diaza[5′,8′]methanocinnoline]]: 7 pM; for `FC(F)(F)c1ccccc1-c1cc2c(nn1)C1CCC2C12CC2` (stereo not drawn) [Example 22, (5′RS,8′SR)-3′-[2-(trifluoromethyl)phenyl]-5′,6′,7′,8′-tetrahydrospiro[cyclopropane-1,9′-[1′,2′]diaza[5′,8′]methanocinnoline]]: 1 pM; for `Cc1c(-c2cc3c(nn2)C2CCC3C23CC3)cnn1C(C)(C)C` (stereo not drawn) [Example 23, (5′RS,8′SR)-3′-(1-tert-butyl-5-methyl-1H-pyrazol-4-yl)-5′,6′,7′,8′-tetrahydrospiro[cyclopropane-1,9′-[1′,2′]diaza[5′,8′]methanocinnoline]]: 95 pM.
Turning to `FC(F)(F)c1ccc(Cl)cc1-c1cc2c(nn1)C1CCC2C12CC2` (stereo not drawn) [Example 24, (5′RS,8′SR)-3′-[5-chloro-2-(trifluoromethyl)phenyl]-5′,6′,7′,8′-tetrahydrospiro[cyclopropane-1,9′-[1′,2′]diaza[5′,8′]methanocinnoline]], the IC50 was 40 pM.
The same measure for `Fc1ccc(-c2cc3c(nn2)C2CCC3CC2)c(C(F)(F)F)c1` [Example 25, 3-[4-fluoro-2-(trifluoromethyl)phenyl]-5,6,7,8-tetrahydro-5,8-ethanocinnoline]: 1 pM.
